Source: US20200261391A1, “METHODS OF REDUCING THE RISK OF A CARDIOVASCULAR EVENT IN A STATIN-TREATED SUBJECT BY INCREASING SERUM AND PLASMA EPA AND DPA LEVELS” (Amarin Pharmaceuticals Ireland Limited, priority 2019, published 2020)

Experiments:
Assay type in all cases: in vivo, human
[1] = test system: patients with elevated triglyceride levels on statin therapy; experiment: REDUCE-IT endpoints by EPA/AA ratio tertile in the icosapent ethyl group compared to placebo; conditions: EPA/AA ≤0.373068; on-treatment average of year 1, year 2, last visit
[2] = test system: patients with elevated triglyceride levels on statin therapy; experiment: REDUCE-IT endpoints by EPA blood level tertile in the icosapent ethyl group compared to placebo
Method: To assess the relationship between on-treatment hsCRP and the primary and key secondary endpoints, subgroup analyses were carried out as done for the ITT population for patients grouped according to values greater or equal to or less than […] at baseline and at 2 years. To assess the relationship between on-treatment serum EPA and the primary and key secondary endpoints, Kaplan-Meier (KM) curves were produced for AMR101 treated patients grouped into tertiles based on their values at year 1 and were compared with the placebo-treated patients.
This is a study aimed towards determining a relative risk reduction (RRR) between subjects stratified by EPA tertiles in the REDUCE-IT clinical trial described above in Example 1. Samples were obtained from those subjects and total EPA and AA levels in human serum and plasma samples were determined according at least to the methods described in Example 7.
The objective of this study is to assess the effects of administering icosapent ethyl at 4 g per day to patients from the REDUCE-IT trial of Example 1. More specifically, patients from the REDUCE-IT trial of Example 1 were stratified by their EPA levels into one of three tertiles. Following stratification, the objective was to determine if the RRR differs between patients having EPA levels in the three different tertiles. For the data collected as shown in Tables 38-43 and FIGS. 52, 53, and 56-59, the tertiles were established based on data collected from subjects at 1 year, 2 years, and last visit following icosapent ethyl administration compared to placebo. Data are presented as an average of 1 year, 2 year, […], and end of study values. The data was further analyzed use both pooled and unpooled statistically methods.

[3] = REDUCE-IT change from baseline blood pressure (mixed effects model); conditions: ITT
Method: Blood pressure was measured using a standardized process: • Patient sat for ≥5 minutes with feet flat on the floor and measurement arm supported so that the midpoint of the manometer cuff was at heart level; and • Used a mercury sphygmomanometer or automatic blood pressure device with an appropriately sized cuff with the bladder centered over the brachial artery.
Blood pressure was recorded to the nearest 2 mmHg mark on the manometer or to the nearest whole number on an automatic device. A blood pressure reading was repeated 1 to 2 minutes later, and the second reading recorded to the nearest 2 mmHg mark.
It is contemplated that a number of factors contribute to the significant reduction in the cardiovascular risk. Without intending to be bound by any particular theory, one of the contributing factors might relate to the dose and formulation of the icosapent ethyl administered to the patients, in marked contrast to previous studies of omega-3 fatty acid studies. An additional contributing factor could relate to the patients' blood pressure. […] These differences appear to be modest, but it is contemplated, that they might contribute to the benefits of icosapent ethyl. […]

[4] = EPA >189 μg/mL, on-treatment average of year 1, year 2, last visit
[5] = EPA >114.7 to ≤189 μg/mL, on-treatment average of year 1, year 2, last visit
[6] = EPA ≤114.7 μg/mL, on-treatment average of year 1, year 2, last visit

Q: With `CC/C=C\C/C=C\C/C=C\C/C=C\C/C=C\CCCC(=O)OCC` [icosapent ethyl, eicosapentaenoic acid ethyl ester] as the compound, how does the “HR (95% CI), Primary Endpoint, Lowest EPA/AA ratio tertile vs Placebo” value [1] read?
A: Its value is 0.83 (0.71, 0.97).

Q: What about the “key secondary endpoint HR, highest EPA tertile vs. placebo” value ([2]; EPA >189 μg/mL) of the same compound?
A: Its value is 0.65.

Q: What about the “primary endpoint HR, highest EPA tertile vs. placebo” value ([2]; EPA >189 μg/mL) of the same compound?
A: Its value is 0.65.

Q: What about the “HR (95% CI), Key Secondary Endpoint, Highest EPA tertile vs Placebo” value [2, 4] of the same compound?
A: The value was 0.65 (0.54, 0.80).

Q: And the “HR (95% CI), Primary Endpoint, Highest EPA tertile vs Placebo” value [2, 4]?
A: The value was 0.65 (0.55, 0.76).

Q: And the “key secondary endpoint HR, middle EPA tertile vs. placebo” value ([2]; EPA >114.7 to ≤189 μg/mL)?
A: The value was 0.65.

Q: What about the “primary endpoint HR, middle EPA tertile vs. placebo” value ([2]; EPA >114.7 to ≤189 μg/mL) of the same compound?
A: The value was 0.72.

Q: What about the “HR (95% CI), Key Secondary Endpoint, Middle EPA tertile vs Placebo” value [2, 5] of the same compound?
A: The value was 0.65 (0.53, 0.79).

Q: What about the “HR (95% CI), Primary Endpoint, Middle EPA tertile vs Placebo” value [2, 5] of the same compound?
A: The value was 0.72 (0.62, 0.85).

Q: And the “key secondary endpoint HR, lowest EPA tertile vs. placebo” value ([2]; EPA blood level ≤114.7 μg/mL)?
A: The value was 0.89.

Q: What about the “primary endpoint HR, lowest EPA tertile vs. placebo” value ([2]; EPA blood level ≤114.7 μg/mL) of the same compound?
A: The value was 0.84.

Q: What about the “HR (95% CI), Key Secondary Endpoint, Lowest EPA tertile vs Placebo” value [2, 6] of the same compound?
A: Its value is 0.89 (0.74, 1.07).

Q: And the “HR (95% CI), Primary Endpoint, Lowest EPA tertile vs Placebo” value [2, 6]?
A: Its value is 0.84 (0.72, 0.98).

Q: What about the “primary composite endpoint HR, highest EPA tertile vs. placebo” value ([2]; FIG. 53, ITT, EPA >190.55 μg/mL) of the same compound?
A: Its value is 0.63.

Q: What about the “primary composite endpoint HR, middle EPA tertile vs. placebo” value ([2]; FIG. 53, ITT, EPA >116.9 to ≤190.55 μg/mL) of the same compound?
A: The value was 0.74.

Q: And the “primary composite endpoint HR, lowest EPA tertile vs. placebo” value ([2]; FIG. 53, ITT, EPA ≤116.9 μg/mL)?
A: The value was 0.85.

Q: What about the “diastolic blood pressure, average placebo-corrected reduction from baseline” value [3] of the same compound?
A: The value was 0.5 mm Hg.

Q: And the “systolic blood pressure, average placebo-corrected reduction from baseline” value [3]?
A: Its value is 1.3 mm Hg.
